The record followed here is PubChem BioAssay (NCI).

Where “and” joins values, the source holds several entries; their conditions need not be identical. Identical values can stand only once.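 Values below derive from 48-hour exposures of cells grown in 96-well plates, with endpoints linearly interpolated between the two concentrations bracketing the appropriate inhibition level. The concentration for 50% growth inhibition is given as GI50. TGI marks complete inhibition of growth.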 Where only a bound is given, the exact number is not on record here.

Among the test systems are DMS 114 small cell lung; RXF-631 renal; XF 498 CNS; SNB-78 CNS; DLD-1 colon; LXFL 529 NSCLC; HOP-18 NSCLC; MDA-N; DMS 273 small cell lung.
Holding throughout (assay): NCI anticancer screen, dose series, 48 h

`C=C[C@]1(C)CCC2=C(CCC3C2(C)CCC[C@@]3(C)COC(C)=O)C1` (stereo not given in full): the TGI is 37.4 µM with DMS 114 small cell lung; 38.1 µM with RXF-631 renal; 34.4 µM in the assay with XF 498 CNS; 36.4 µM with SNB-78 CNS; 34.7 µM with DLD-1 colon; 32.5 µM with LXFL 529 NSCLC. In the assay on HOP-18 NSCLC, this compound returned a TGI of 70.1 µM.

In the case of `O=C1CCSC2=C1SCc1sccc12`, the TGI in the assay on DMS 114 small cell lung, in the assay with XF 498 CNS, with SNB-78 CNS, in the assay on DLD-1 colon and in the assay with LXFL 529 NSCLC was above 100 µM in each case.

Consider `CCNC(=O)O/N=C1\CCC2[C@@H]3CC=C4C[C@@H](OC5CCCCO5)CC[C@]4(C)C3CC[C@]12C` (stereo not given in full), for which the TGI in the assay on RXF-631 renal is 22.4 µM; with SNB-78 CNS, 6.42 µM; in the assay on DLD-1 colon, above 100 µM; in the assay on LXFL 529 NSCLC, 2.43 µM; in the assay with HOP-18 NSCLC, 4.28 µM.

`CC(C)(C)CC(N)=O`: in the assay with MDA-N, the TGI was above 100 µM.

Consider `CC(C)NC(=O)CCN(C(=O)O)S(=O)(=O)c1ccc(NC(=O)c2ccccc2)cc1`, for which the TGI in the assay on DMS 273 small cell lung is above 56.7 µM; with DMS 114 small cell lung, above 54.3 µM; with RXF-631 renal, above 100 µM; in the assay with XF 498 CNS it was above 100 µM; in the assay with SNB-78 CNS, above 100 µM; in the assay on DLD-1 colon, above 72.6 µM. Also, the TGI in the assay with LXFL 529 NSCLC and with HOP-18 NSCLC was above 100 µM each time.

Turning to `Cc1ccccc1-n1c2nc(=O)n(C)c(=O)c-2nc2ccccc21`, the TGI with DMS 273 small cell lung worked out at 26.7 µM; in the assay with DMS 114 small cell lung, 18.3 µM; with RXF-631 renal, 36.3 µM; with XF 498 CNS, 31.3 µM; with SNB-78 CNS, 43.1 µM; in the assay with DLD-1 colon, 42.4 µM. Besides, the TGI in the assay on LXFL 529 NSCLC was 26.3 µM; with HOP-18 NSCLC it was 24.2 µM.

As for `Cc1ccc(NC(=O)/C(Cl)=C(/Cl)C(=O)O)cc1`, the TGI in the assay on DMS 273 small cell lung is 41.7 µM; with DMS 114 small cell lung, 34.2 µM; in the assay with RXF-631 renal it was 49.8 µM; with SNB-78 CNS it was 53.4 µM; in the assay on DLD-1 colon, 33.5 µM; in the assay with LXFL 529 NSCLC it was 26.6 µM. Also, the TGI with HOP-18 NSCLC came to 34.7 µM.

Take `CC1(c2ccccc2)CC(c2cccc([N+](=O)[O-])c2)=NO1` (stereo not given): the TGI in the assay with DMS 273 small cell lung, with DMS 114 small cell lung, in the assay on RXF-631 renal, in the assay on SNB-78 CNS, in the assay on DLD-1 colon and with LXFL 529 NSCLC was above 100 µM throughout. Also, the TGI with HOP-18 NSCLC is above 100 µM.

With `COc1ccc2nc3cc(Cl)ccc3c(Sc3ccc([N+](=O)[O-])cc3)c2c1`, the GI50 in the assay on DMS 273 small cell lung, in the assay with DMS 114 small cell lung, in the assay with RXF-631 renal, with XF 498 CNS, in the assay with DLD-1 colon and in the assay with LXFL 529 NSCLC was above 100 µM throughout. Also, the GI50 in the assay with HOP-18 NSCLC is above 100 µM. Moreover, the TGI is above 100 µM in the assay on DMS 273 small cell lung; above 100 µM in the assay on DMS 114 small cell lung; above 100 µM in the assay with RXF-631 renal; above 100 µM in the assay on XF 498 CNS; above 10 µM with SNB-78 CNS; above 100 µM in the assay on DLD-1 colon. Moreover, the TGI in the assay on LXFL 529 NSCLC and with HOP-18 NSCLC was above 100 µM in each case.

In the case of `COC(=O)C(Cc1nc2ccccc2nc1C)/C(=N\NC(N)=O)C(=O)Nc1cccc([N+](=O)[O-])c1` (stereo not given), the TGI with DMS 114 small cell lung, in the assay with RXF-631 renal, in the assay with XF 498 CNS, in the assay on SNB-78 CNS, in the assay on DLD-1 colon and with LXFL 529 NSCLC was above 100 µM in each case. In addition, in the assay on HOP-18 NSCLC, the TGI is above 100 µM.

Consider `Cc1cc(C)nc(NS(=O)(=O)c2ccc(Nc3c4ccc(Cl)cc4nc4c(C(=O)NCCN(C)C)cccc34)cc2)n1`, for which the TGI in the assay with DMS 273 small cell lung, with DMS 114 small cell lung, with RXF-631 renal, with XF 498 CNS, in the assay on SNB-78 CNS and with DLD-1 colon was above 100 µM in each case. The same compound came in with a TGI in the assay with LXFL 529 NSCLC above 100 µM.

In the case of `Cc1c(O)c2c(c(O)c1Br)C(=O)C=CC2=O`, in the assay on MDA-N, the GI50 is 0.63 µM; the TGI was 0.615 µM and 2.08 µM.

Consider `COc1ccc(C2C(C)C(=O)C(C)C(c3ccc(OC)cc3)N2N=O)cc1` (stereo not given), for which the GI50 with DMS 273 small cell lung was 609 µM; with DMS 114 small cell lung it was above 1000 µM; in the assay with RXF-631 renal, 270 µM; in the assay on XF 498 CNS, 27 µM and 39.1 µM; in the assay with SNB-78 CNS, > 46.2 µM and 96.1 µM; in the assay with DLD-1 colon, above 750 µM. The GI50 in the assay with LXFL 529 NSCLC and in the assay with HOP-18 NSCLC was above 1000 µM each time. Further, the TGI in the assay on DMS 273 small cell lung was 750 µM and > 1000 µM; in the assay on MDA-N it was 381 µM; in the assay on DMS 114 small cell lung, above 1000 µM; in the assay with RXF-631 renal, 750 µM and 281 µM; in the assay on XF 498 CNS, 69.7 µM and 160 µM and > 460 µM; with SNB-78 CNS it was > 78.2 µM and 750 µM and > 902 µM. The TGI with DLD-1 colon, in the assay on LXFL 529 NSCLC and in the assay on HOP-18 NSCLC was above 1000 µM each time.

Compound `Cc1ccc2c(c1)S(=O)(=O)c1ccc3ccccc3c1N2` gave a TGI with MDA-N above 100 µM.

`CC#CC1C2CCCC1(CSc1ccccc1)NC(=O)O2` (stereo not given): the TGI with DMS 273 small cell lung, with DMS 114 small cell lung, in the assay on RXF-631 renal, in the assay with XF 498 CNS, in the assay with SNB-78 CNS and in the assay on DLD-1 colon was above 100 µM each time. In addition, the TGI in the assay on LXFL 529 NSCLC and with HOP-18 NSCLC was above 100 µM throughout.
